Experiment: xn = mol fraction of the nth substance listed
Conditions: 101 kPa, Liquid; for speed of sound: Sing-around technique in a fixed-path interferometer; for mass density: Vibrating tube method; for viscosity: Capillary tube (Ostwald / Ubbelohde) method

NCCN [ethane-1,2-diamine] + CCCCCCO
Conditions | mass density [kg/m3] | speed of sound [m/s] | viscosity [mPa·s]
293.15 K, x1 = 0.0773 | 824.126 | 1338.6 | –
293.15 K, x1 = 0.1231 | 827.205 | 1348.9 | –
293.15 K, x1 = 0.1604 | 829.772 | 1358.1 | –
293.15 K, x1 = 0.1925 | 831.826 | 1365.8 | –
293.15 K, x1 = 0.2525 | 835.69 | 1381 | –
293.15 K, x1 = 0.2907 | 837.925 | 1390.2 | –
293.15 K, x1 = 0.3942 | 844.247 | 1417.8 | –
293.15 K, x1 = 0.5086 | 851.229 | 1450.5 | –
293.15 K, x1 = 0.6059 | 857.577 | 1482.3 | –
293.15 K, x1 = 0.7125 | 865.791 | 1522.6 | –
293.15 K, x1 = 0.81 | 874.361 | 1569 | –
293.15 K, x1 = 0.8583 | 879.425 | 1596.2 | –
293.15 K, x1 = 0.9028 | 884.825 | 1623.9 | –
293.15 K, x1 = 0.945 | 890.109 | 1652.7 | –
298.15 K, x1 = 0.0773 | 820.463 | 1321.6 | 4.258
298.15 K, x1 = 0.1213 | – | – | 4.169
298.15 K, x1 = 0.1231 | 823.489 | 1331.9 | –
298.15 K, x1 = 0.1604 | 826.005 | 1340.9 | 4.072
298.15 K, x1 = 0.1925 | 828.015 | 1348.6 | 4
298.15 K, x1 = 0.2525 | 831.807 | 1363.7 | 3.832
298.15 K, x1 = 0.2907 | 833.999 | 1372.7 | 3.72
298.15 K, x1 = 0.3942 | 840.22 | 1399.9 | 3.357
298.15 K, x1 = 0.5086 | 847.107 | 1432.2 | 2.926
298.15 K, x1 = 0.6059 | 853.36 | 1463.5 | 2.528
298.15 K, x1 = 0.7125 | 861.471 | 1503.1 | 2.149
298.15 K, x1 = 0.81 | 869.926 | 1548.7 | 1.851
298.15 K, x1 = 0.8583 | 874.936 | 1575.4 | 1.725
298.15 K, x1 = 0.9028 | 880.277 | 1602.8 | 1.619
298.15 K, x1 = 0.945 | 885.496 | 1630.9 | 1.536
303.15 K, x1 = 0.0773 | 816.783 | 1304.6 | 3.578
303.15 K, x1 = 0.1213 | 819.755 | 1314.9 | 3.551
303.15 K, x1 = 0.1604 | 822.223 | 1323.9 | 3.51
303.15 K, x1 = 0.1925 | 824.193 | 1331.5 | 3.452
303.15 K, x1 = 0.2525 | 827.911 | 1346.5 | 3.324
303.15 K, x1 = 0.2907 | 830.062 | 1355.4 | 3.234
303.15 K, x1 = 0.3942 | 836.182 | 1382.2 | 2.91
303.15 K, x1 = 0.5086 | 842.967 | 1413.9 | 2.537
303.15 K, x1 = 0.6059 | 849.135 | 1444.7 | 2.194
303.15 K, x1 = 0.7125 | 857.138 | 1483.7 | 1.88
303.15 K, x1 = 0.81 | 865.482 | 1528.5 | 1.612
303.15 K, x1 = 0.8583 | 870.432 | 1554.7 | 1.506
303.15 K, x1 = 0.9028 | 875.713 | 1581.5 | 1.428
303.15 K, x1 = 0.945 | 880.874 | 1609.2 | 1.336
308.15 K, x1 = 0.0773 | 813.087 | 1287.8 | 3.066
308.15 K, x1 = 0.1213 | 816.005 | 1298.2 | 3.025
308.15 K, x1 = 0.1604 | 818.427 | 1307 | 2.971
308.15 K, x1 = 0.1925 | 820.356 | 1314.6 | 2.923
308.15 K, x1 = 0.2525 | 824 | 1329.3 | 2.814
308.15 K, x1 = 0.2907 | 826.113 | 1338.1 | 2.737
308.15 K, x1 = 0.3942 | 832.134 | 1364.6 | 2.479
308.15 K, x1 = 0.5086 | 838.821 | 1395.8 | 2.174
308.15 K, x1 = 0.6059 | 844.903 | 1426.1 | 1.892
308.15 K, x1 = 0.7125 | 852.798 | 1464.4 | 1.62
308.15 K, x1 = 0.81 | 861.03 | 1508.5 | 1.404
308.15 K, x1 = 0.8583 | 865.917 | 1534.1 | 1.316
308.15 K, x1 = 0.9028 | 871.143 | 1560.6 | 1.241
308.15 K, x1 = 0.945 | 876.241 | 1587.7 | 1.18
313.15 K, x1 = 0.0773 | 809.362 | 1271.1 | –
313.15 K, x1 = 0.1213 | 812.228 | 1281.6 | –
313.15 K, x1 = 0.1604 | 814.602 | 1290.4 | –
313.15 K, x1 = 0.1925 | 816.496 | 1297.9 | –
313.15 K, x1 = 0.2525 | 820.069 | 1312.4 | –
313.15 K, x1 = 0.2907 | 822.144 | 1321.1 | –
313.15 K, x1 = 0.3942 | 828.065 | 1347 | –
313.15 K, x1 = 0.5086 | 834.657 | 1377.9 | –
313.15 K, x1 = 0.6059 | 840.646 | 1407.5 | –
313.15 K, x1 = 0.7125 | 848.435 | 1445.3 | –
313.15 K, x1 = 0.81 | 856.554 | 1488.5 | –
313.15 K, x1 = 0.8583 | 861.384 | 1513.6 | –
313.15 K, x1 = 0.9028 | 866.55 | 1539.7 | –
313.15 K, x1 = 0.945 | 871.587 | 1566.3 | –

NCCN [ethane-1,2-diamine] + CCCCCCCCCCO
Conditions | mass density [kg/m3] | speed of sound [m/s] | viscosity [mPa·s]
293.15 K, x1 = 0.0424 | 831.534 | 1402.1 | –
293.15 K, x1 = 0.1063 | 834.058 | 1408.9 | –
293.15 K, x1 = 0.1512 | 835.766 | 1414.8 | –
293.15 K, x1 = 0.1995 | 837.56 | 1420.8 | –
293.15 K, x1 = 0.2511 | 839.445 | 1427.1 | –
293.15 K, x1 = 0.2957 | 841.022 | 1432.6 | –
293.15 K, x1 = 0.3961 | 844.521 | 1445.5 | –
293.15 K, x1 = 0.4929 | 848.18 | 1459.7 | –
293.15 K, x1 = 0.609 | 853.458 | 1481.8 | –
293.15 K, x1 = 0.6962 | 858.67 | 1504.6 | –
293.15 K, x1 = 0.7975 | 866.833 | 1541.1 | –
293.15 K, x1 = 0.855 | 872.943 | 1570.1 | –
293.15 K, x1 = 0.9054 | 879.622 | 1602.3 | –
293.15 K, x1 = 0.9591 | 888.704 | 1648.1 | –
298.15 K, x1 = 0.0424 | 828.092 | 1384.9 | 10.96
298.15 K, x1 = 0.1063 | 830.545 | 1391.6 | 10.6
298.15 K, x1 = 0.1512 | 832.202 | 1397.5 | 10.36
298.15 K, x1 = 0.1995 | 833.938 | 1403.3 | 9.921
298.15 K, x1 = 0.2511 | 835.76 | 1409.5 | 9.382
298.15 K, x1 = 0.2957 | 837.289 | 1414.9 | 8.821
298.15 K, x1 = 0.3961 | 840.693 | 1427.6 | 7.355
298.15 K, x1 = 0.4929 | 844.262 | 1441.5 | 6.047
298.15 K, x1 = 0.609 | 849.415 | 1463.1 | 4.514
298.15 K, x1 = 0.6962 | 854.51 | 1485.4 | 3.644
298.15 K, x1 = 0.7975 | 862.525 | 1521.3 | 2.699
298.15 K, x1 = 0.855 | 868.535 | 1549.7 | 2.198
298.15 K, x1 = 0.9054 | 875.128 | 1581.4 | 1.874
298.15 K, x1 = 0.9591 | 884.107 | 1626.4 | 1.598
303.15 K, x1 = 0.0424 | 824.641 | 1367.8 | 9.008
303.15 K, x1 = 0.1063 | 827.029 | 1374.7 | 8.713
303.15 K, x1 = 0.1512 | 828.635 | 1380.3 | 8.442
303.15 K, x1 = 0.1995 | 830.31 | 1386.1 | 8.104
303.15 K, x1 = 0.2511 | 832.075 | 1392.1 | 7.658
303.15 K, x1 = 0.2957 | 833.56 | 1397.5 | 7.229
303.15 K, x1 = 0.3961 | 836.868 | 1409.8 | 6.168
303.15 K, x1 = 0.4929 | 840.345 | 1423.5 | 5.062
303.15 K, x1 = 0.609 | 845.37 | 1444.5 | 3.892
303.15 K, x1 = 0.6962 | 850.353 | 1466.5 | 3.107
303.15 K, x1 = 0.7975 | 858.212 | 1501.6 | 2.343
303.15 K, x1 = 0.855 | 864.125 | 1529.5 | 1.985
303.15 K, x1 = 0.9054 | 870.631 | 1560.8 | 1.66
303.15 K, x1 = 0.9591 | 879.506 | 1604.9 | 1.403
308.15 K, x1 = 0.0424 | 821.178 | 1350.9 | 7.295
308.15 K, x1 = 0.1063 | 823.508 | 1358 | 7.087
308.15 K, x1 = 0.1512 | 825.064 | 1363.4 | 6.852
308.15 K, x1 = 0.1995 | 826.684 | 1369.1 | 6.563
308.15 K, x1 = 0.2511 | 828.392 | 1375 | 6.202
308.15 K, x1 = 0.2957 | 829.829 | 1380.3 | 5.881
308.15 K, x1 = 0.3961 | 833.045 | 1392.3 | 5.028
308.15 K, x1 = 0.4929 | 836.429 | 1405.6 | 4.23
308.15 K, x1 = 0.609 | 841.323 | 1426.1 | 3.288
308.15 K, x1 = 0.6962 | 846.189 | 1447.5 | 2.661
308.15 K, x1 = 0.7975 | 853.898 | 1481.9 | 2.032
308.15 K, x1 = 0.855 | 859.714 | 1509.4 | 1.708
308.15 K, x1 = 0.9054 | 866.124 | 1540.1 | 1.485
308.15 K, x1 = 0.9591 | 874.895 | 1583.6 | 1.238
313.15 K, x1 = 0.0424 | 817.698 | 1334.2 | –
313.15 K, x1 = 0.1063 | 819.969 | 1341.6 | –
313.15 K, x1 = 0.1512 | 821.476 | 1346.8 | –
313.15 K, x1 = 0.1995 | 823.045 | 1352.3 | –
313.15 K, x1 = 0.2511 | 824.7 | 1358.1 | –
313.15 K, x1 = 0.2957 | 826.089 | 1363.2 | –
313.15 K, x1 = 0.3961 | 829.21 | 1375 | –
313.15 K, x1 = 0.4929 | 832.502 | 1387.9 | –
313.15 K, x1 = 0.609 | 837.271 | 1407.9 | –
313.15 K, x1 = 0.6962 | 842.017 | 1428.6 | –
313.15 K, x1 = 0.7975 | 849.57 | 1462.5 | –
313.15 K, x1 = 0.855 | 855.287 | 1489.4 | –
313.15 K, x1 = 0.9054 | 861.605 | 1519.8 | –
313.15 K, x1 = 0.9591 | 870.264 | 1562.4 | –
